Assay results from patent US4584404A, “Substituted phenoxyphenylproply dimethylamines” (priority 1983, dated 1986).
“Also recorded” adds a separate entry of the source.

Legend:
[1] = humans; cited from earlier work
[2] = system: norepinephrine uptake (synaptosomes from rat brain); experiment: blockade of norepinephrine uptake by synaptosomes from rat brain, in vitro, radioactive labelled compounds; type: biochemical; settings: norepinephrine 0.48 μM
Description: (§1) This blockade is shown both in vitro with radioactive labelled compounds to determine the amount of monoamine uptake by synaptosomes from rat brain, and in vivo by a variety of methods. Among the physiologically active monoamines whose uptake is blocked by the compounds of this invention are included particularly serotonin (5HT) and norepinephrine(3,4-dihydroxyphenylethanolamine). […] Tables 1 and 2 which follow set forth the results of some of the in vitro determinations of the blockade of monoamine uptake by the compounds of this invention. In the tables, column 1 gives the R substituent on the 3-phenylpropylamine and columns 2-4, the concentration in micrograms per ml. that blocks the uptake by 50 percent of the monoamines--norepinephrine, serotonin, and dopamine. At the head of each column is given the concentration of the particular monoamine used in the experiment.

[3] = system: serotonin uptake (synaptosomes from rat brain); experiment: blockade of serotonin (5HT) uptake by synaptosomes from rat brain, in vitro, radioactive labelled compounds; type: biochemical; settings: serotonin 0.1 μM
Description: as §1

[4] = system: dopamine uptake (synaptosomes from rat brain); experiment: blockade of dopamine uptake by synaptosomes from rat brain, in vitro, radioactive labelled compounds; type: biochemical; settings: dopamine 0.2 μM
Description: as §1

[5] = system: NE uptake and 5HT uptake; experiment: NE/5HT uptake inhibition selectivity; type: biochemical, rat; settings: for NE/5HT IC50 uptake ratio: ratio NE/5HT
Description: as §1

Compound | antidepressant effect [1] | Concentration that blocks 50% of norepinephrine uptake [2] | Concentration that blocks 50% of serotonin uptake [3] | Concentration that blocks 50% of dopamine uptake [4] [µg/mL] | uptake inhibition selectivity in words ([5]; 5HT vs NE, listed as IV) | NE/5HT IC50 uptake ratio [5]
CNCCC(Oc1ccc(C(F)(F)F)cc1)c1ccccc1 (stereo not drawn) [fluoxetine, 3-phenyl-3-(p-trifluoromethyl)phenoxypropyl methylamine] | highly potent antidepressant in humans |  |  |  |  | 
Cc1ccccc1OC(CCN(C)C)c1ccccc1 (stereo not drawn) [o-tolyloxy, 3-o-tolyloxy-3-phenylpropyl dimethylamine] |  | .35 µg/mL | 2 µg/mL | 0.8 | selective NE uptake inhibitors; also recorded: blocks NE preferentially | .5
CN(C)CCC(Oc1ccc(Cl)cc1)c1ccccc1 (stereo not drawn) [p-chlorophenoxy, N,N-dimethyl 3-phenyl-3-(p-chlorophenoxy)-propylamine] |  | .3 µg/mL | .03 µg/mL | 1.3 |  | 9.88
Cc1ccc(OC(CCN(C)C)c2ccccc2)cc1 (stereo not drawn) [p-tolyloxy, N,N-dimethyl 3-(p-tolyloxy)-3-phenylpropylamine] |  | .015 µg/mL | .4 µg/mL | > 100 |  | 5.83
CN(C)CCC(Oc1ccc(C(F)(F)F)cc1)c1ccccc1 (stereo not drawn) [p-trifluoromethylphenyloxy, N,N-dimethyl-3-(p-trifluoromethylphenoxy)-3-phenylpropylamine] |  | 70 µg/mL | .16 µg/mL | > 100 |  | 7.19
